ChEMBL document CHEMBL5154826, “Discovery of the Clinical Candidate MAK683: An EED-Directed, Allosteric, and Selective PRC2 Inhibitor for the Treatment of Advanced Malignancies” (J Med Chem, 2022)
Converted amounts (≈) assume the structure as drawn.

Key:
[1] = Drugmetabolism in dog hepatocytes assessed as CYP3A4 mediated metabolite formation; type: ADME, cell-based, Canis lupus familiaris, Hepatocyte
[2] = Plasma protein binding in human assessed as unbound fraction at 1 uM measured after 6 hrs LC-MS/MS analysis; type: ADME, cell-free
[3] = Toxicity in Athymic NTac:NIH-Whn nude rat xenografted with human Karpas-422 cells assessed as reduction in body weight at 60 mg/kg, po, qd measured upto 140 days; type: organism-based; settings: in vivo, 3360 h, time < 140 day
[4] = Antitumor activity against human Karpas-422 cells xenografted Athymic BALB/c nude mouse assessed as inhibition of tumor growth at 300 mg/kg, po for 23 days; type: functional; set-up: scale not given: the % may be the effect or the level left; settings: time 23 day
[5] = Intrinsic clearance in mouse hepatocytes measured per 10^6 cells; type: ADME, cell-based, Hepatocyte; settings: read-out: CLH
[6] = cells; settings: Homo sapiens, G-401, 48 h
Description: Inhibition of PRC2 in human G-401 cells assessed as H3K27 methylation status incubated for 48 hrs by ELISA method

[7] = Drugmetabolism in human hepatocytes assessed as metabolite formation; type: ADME, cell-based, Hepatocyte
[8] = Plasma clearance in dog assessed as hepatic extraction; type: ADME, cell-free, Canis lupus familiaris; settings: read-out: ERH
[9] = Ratio of drug level in human blood to plasma; type: ADME, cell-free; settings: whole blood
[10] = target: Synaptic vesicular amine transporter (Homo sapiens, UniProt Q05940); test: Inhibition of vesicular monoamine transporter 2 (unknown origin)
Synaptic vesicular amine transporter, sequence (Q05940 whole entry): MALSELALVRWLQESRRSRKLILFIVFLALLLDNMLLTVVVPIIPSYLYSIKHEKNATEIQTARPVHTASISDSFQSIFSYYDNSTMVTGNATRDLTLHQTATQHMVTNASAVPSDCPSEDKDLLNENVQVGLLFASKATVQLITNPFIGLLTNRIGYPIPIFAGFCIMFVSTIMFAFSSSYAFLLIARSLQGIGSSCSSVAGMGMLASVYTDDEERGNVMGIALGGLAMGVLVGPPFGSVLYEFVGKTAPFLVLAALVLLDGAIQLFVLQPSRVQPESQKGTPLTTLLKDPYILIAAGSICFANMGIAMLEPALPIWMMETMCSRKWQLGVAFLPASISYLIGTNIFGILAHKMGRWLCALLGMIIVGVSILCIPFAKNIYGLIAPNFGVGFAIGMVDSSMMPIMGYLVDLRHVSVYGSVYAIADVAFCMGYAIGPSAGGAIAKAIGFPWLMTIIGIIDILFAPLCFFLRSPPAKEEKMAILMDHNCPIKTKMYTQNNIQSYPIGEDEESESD

[11] = High throughput solubility of the compound at pH 7 after 16 to 24 hrs by MS/MS analysis; type: physicochemical; settings: buffer, time 16-24 hrs, read-out: solubility
[12] = Genotoxicity in Salmonella typhimurium TA98 in presence of S9 fraction by Ames test; type: toxicity, subcellular; settings: salmonella enterica subsp. enterica serovar typhimurium
[13] = Plasma protein binding in rat at 1 uM measured after 6 hrs LC-MS/MS analysis; type: ADME, cell-free; settings: read-out: PPB (converted)
[14] = High throughput solubility of the compound at pH 4 after 16 to 24 hrs by MS/MS analysis; type: physicochemical; settings: buffer, time 16-24 hrs
[15] = Mutagenecity in Salmonella typhimurium TA98 by Ames test; type: toxicity; settings: salmonella enterica subsp. enterica serovar typhimurium
[16] = Antitumor activity against human Karpas-422 cells xenografted Athymic BALB/c nude mouse assessed as inhibition of tumor growth at 3 to 100 mg/kg, po bid, for 30 days treatment started at twenty fifth day after cancer cell implantation and followed by stop dosing measured upto 70 days; type: functional; set-up: scale not given: the % may be the effect or the level left; settings: dose 3-100 mg/kg, time 30 day
[17] = Permeability across apical to basolateral side in human Caco-2 cells at 10 uM incubated for 2 hrs by LC/MS/MS analysis; type: ADME, cell-based; settings: caco-2, 2 h, 10 µM
[18] = Metabolic stability in rat microsomes assessed as intrinsic clearance; type: ADME, Microsome; settings: read-out: CLH
[19] = Toxicity in Athymic BALB/c nude mouse xenografted with human Karpas-422 cells assessed as tolerability by measuring body weight at 10 to 300 mg/kg, po twice a day for 30 days; type: organism-based; settings: in vivo, 720 h, dose 10-300 mg/kg, time 30 day
[20] = Plasma protein binding in dog at 1 uM measured after 6 hrs LC-MS/MS analysis; type: ADME, cell-free, Canis lupus familiaris; settings: read-out: PPB (converted)
[21] = Antitumor activity against human Karpas-422 cells xenografted Athymic BALB/c nude mouse assessed as inhibition of tumor growth at 100 mg/kg, po for 26 days; type: functional; set-up: scale not given: the % may be the effect or the level left; settings: time 26 day
[22] = Dose normalized Cmax in Sprague-Dawley rat at 2 mg/kg, po or 1 mg/kg, iv after 1 week by LC-MS/MS analysis; type: ADME, organism-based; settings: in vivo, 168 h, time 1 weeks
[23] = target: Cytochrome P450 3A5 (Homo sapiens, UniProt P20815); test: Inhibition of CYP3A5 in human liver microsomes by LC-MS/MS analysis; type: ADME, Microsome
Cytochrome P450 3A5, sequence (P20815 whole entry): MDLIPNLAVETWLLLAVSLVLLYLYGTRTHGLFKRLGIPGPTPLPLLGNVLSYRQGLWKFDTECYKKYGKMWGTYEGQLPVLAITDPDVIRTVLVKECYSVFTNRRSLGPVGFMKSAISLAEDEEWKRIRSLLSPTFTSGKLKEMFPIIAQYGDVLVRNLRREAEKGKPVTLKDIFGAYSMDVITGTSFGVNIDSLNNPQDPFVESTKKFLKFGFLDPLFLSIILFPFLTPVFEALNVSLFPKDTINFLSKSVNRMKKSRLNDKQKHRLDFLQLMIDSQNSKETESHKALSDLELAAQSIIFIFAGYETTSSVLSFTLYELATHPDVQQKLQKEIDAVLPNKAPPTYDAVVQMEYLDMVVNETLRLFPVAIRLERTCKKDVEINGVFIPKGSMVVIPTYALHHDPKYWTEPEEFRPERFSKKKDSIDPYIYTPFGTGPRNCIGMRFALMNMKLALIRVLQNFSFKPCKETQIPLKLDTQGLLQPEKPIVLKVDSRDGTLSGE

[24] = Plasma clearance in rat assessed as hepatic extraction; type: ADME, cell-free; settings: read-out: ERH
[25] = target: Cytochrome P450 3A4 (Homo sapiens, UniProt P08684); test: Inhibition of CYP3A4 in human liver microsomes using midazolam as substrate incubated for 10 mins in presence of NADPH by LC-MS/MS analysis; type: ADME, Microsome
Cytochrome P450 3A4, sequence (P08684 whole entry): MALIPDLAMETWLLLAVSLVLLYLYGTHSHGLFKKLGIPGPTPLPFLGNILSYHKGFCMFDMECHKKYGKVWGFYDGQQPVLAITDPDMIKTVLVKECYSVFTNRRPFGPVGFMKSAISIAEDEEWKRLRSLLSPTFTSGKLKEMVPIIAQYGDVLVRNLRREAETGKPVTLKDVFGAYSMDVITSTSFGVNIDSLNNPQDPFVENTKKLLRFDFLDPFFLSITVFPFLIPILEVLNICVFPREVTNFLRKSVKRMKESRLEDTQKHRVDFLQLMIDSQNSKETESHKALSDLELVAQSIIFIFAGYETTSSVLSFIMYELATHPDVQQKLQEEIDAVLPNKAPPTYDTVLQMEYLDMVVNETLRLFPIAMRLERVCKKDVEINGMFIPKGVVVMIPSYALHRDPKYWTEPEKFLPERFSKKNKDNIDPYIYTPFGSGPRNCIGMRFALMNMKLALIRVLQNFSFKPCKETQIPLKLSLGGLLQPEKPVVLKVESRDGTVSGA

[26] = target: Cytochrome P450 2D6 (Homo sapiens, UniProt P10635); test: Inhibition of CYP2D6 human liver microsomes using bufuralol as substrate incubated for 15 mins by LC-MS/MS analysis; type: ADME, Microsome
Cytochrome P450 2D6, sequence (P10635 whole entry): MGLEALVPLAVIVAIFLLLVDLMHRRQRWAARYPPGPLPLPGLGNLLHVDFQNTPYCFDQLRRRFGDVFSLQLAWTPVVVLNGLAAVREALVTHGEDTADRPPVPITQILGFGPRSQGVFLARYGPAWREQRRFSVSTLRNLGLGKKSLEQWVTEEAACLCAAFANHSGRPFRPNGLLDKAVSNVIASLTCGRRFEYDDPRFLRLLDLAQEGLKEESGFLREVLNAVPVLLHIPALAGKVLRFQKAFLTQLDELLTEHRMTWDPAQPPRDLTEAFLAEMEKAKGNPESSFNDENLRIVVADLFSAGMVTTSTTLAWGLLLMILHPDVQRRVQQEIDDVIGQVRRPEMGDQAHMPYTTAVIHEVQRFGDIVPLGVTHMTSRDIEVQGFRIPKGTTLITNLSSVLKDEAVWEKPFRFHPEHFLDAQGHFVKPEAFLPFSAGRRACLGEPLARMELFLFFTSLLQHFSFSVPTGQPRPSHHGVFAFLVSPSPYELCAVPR

[27] = Metabolic stability in dog microsomes assessed as intrinsic clearance; type: ADME, Canis lupus familiaris, Microsome; settings: read-out: CLH
[28] = Antitumor activity against human Karpas-422 cells xenografted Athymic BALB/c nude mouse assessed as inhibition of tumor growth at 30 mg/kg, po bid, for 33 days; type: functional; set-up: scale not given: the % may be the effect or the level left; settings: time 33 day
[29] = Intrinsic clearance in rat hepatocytes measured per 10^6 cells; type: ADME, cell-based, Hepatocyte; settings: read-out: CLH
[30] = Plasma clearance in mouse; type: ADME, cell-free
[31] = target: Voltage-gated inwardly rectifying potassium channel KCNH2 (Homo sapiens, UniProt Q12809); test: Inhibition of hERG potassium channel in HEK293 cells by Q-patch clamp assay; type: toxicity, cell-based
Voltage-gated inwardly rectifying potassium channel KCNH2, sequence (Q12809 whole entry): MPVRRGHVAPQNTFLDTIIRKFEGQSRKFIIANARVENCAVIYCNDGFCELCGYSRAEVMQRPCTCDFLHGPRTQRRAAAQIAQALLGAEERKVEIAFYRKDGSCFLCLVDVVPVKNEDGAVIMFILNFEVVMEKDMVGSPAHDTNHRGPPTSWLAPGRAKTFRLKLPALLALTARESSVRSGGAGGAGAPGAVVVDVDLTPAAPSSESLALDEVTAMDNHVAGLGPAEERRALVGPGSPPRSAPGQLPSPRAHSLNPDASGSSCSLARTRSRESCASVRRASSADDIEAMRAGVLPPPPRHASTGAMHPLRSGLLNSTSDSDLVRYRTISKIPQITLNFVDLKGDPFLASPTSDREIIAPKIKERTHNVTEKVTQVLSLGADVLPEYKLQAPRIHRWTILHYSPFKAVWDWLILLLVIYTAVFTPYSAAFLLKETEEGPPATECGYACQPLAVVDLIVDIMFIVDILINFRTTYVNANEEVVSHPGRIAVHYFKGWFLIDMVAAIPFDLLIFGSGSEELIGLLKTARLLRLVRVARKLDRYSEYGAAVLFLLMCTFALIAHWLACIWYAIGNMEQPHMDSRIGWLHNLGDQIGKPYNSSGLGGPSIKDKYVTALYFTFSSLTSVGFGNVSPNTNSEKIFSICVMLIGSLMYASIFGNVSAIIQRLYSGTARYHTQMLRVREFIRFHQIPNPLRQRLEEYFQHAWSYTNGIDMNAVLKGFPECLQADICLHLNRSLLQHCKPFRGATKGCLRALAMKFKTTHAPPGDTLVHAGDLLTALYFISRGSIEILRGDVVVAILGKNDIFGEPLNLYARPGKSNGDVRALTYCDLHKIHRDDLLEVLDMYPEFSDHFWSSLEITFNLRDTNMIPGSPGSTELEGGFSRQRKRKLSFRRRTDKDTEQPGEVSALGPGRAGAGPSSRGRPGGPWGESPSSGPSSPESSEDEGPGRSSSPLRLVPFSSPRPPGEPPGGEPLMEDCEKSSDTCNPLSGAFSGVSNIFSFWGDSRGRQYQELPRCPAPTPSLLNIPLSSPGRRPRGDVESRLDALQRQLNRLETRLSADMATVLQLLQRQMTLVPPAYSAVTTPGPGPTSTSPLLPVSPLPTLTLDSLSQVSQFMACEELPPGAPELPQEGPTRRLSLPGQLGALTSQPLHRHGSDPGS

[32] = target: T1, Muscarinic acetylcholine receptor M2 (Homo sapiens, UniProt P08172); test: Agonist activity at muscarinic M2 receptor (unknown origin); type: functional
T1 sequence (P08172 whole entry): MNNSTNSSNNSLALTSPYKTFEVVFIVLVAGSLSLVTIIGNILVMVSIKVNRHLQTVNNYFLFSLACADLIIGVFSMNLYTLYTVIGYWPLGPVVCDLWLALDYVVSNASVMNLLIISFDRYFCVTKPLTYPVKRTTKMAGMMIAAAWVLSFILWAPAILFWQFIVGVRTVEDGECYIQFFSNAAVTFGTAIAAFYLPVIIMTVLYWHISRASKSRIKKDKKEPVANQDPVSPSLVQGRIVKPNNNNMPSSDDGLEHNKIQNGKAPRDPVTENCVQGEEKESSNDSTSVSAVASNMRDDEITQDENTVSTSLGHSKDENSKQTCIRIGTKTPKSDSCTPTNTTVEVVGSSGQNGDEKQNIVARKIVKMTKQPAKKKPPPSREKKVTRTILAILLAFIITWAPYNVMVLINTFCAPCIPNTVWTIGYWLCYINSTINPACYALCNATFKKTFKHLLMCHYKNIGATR

[33] = target: Cytochrome P450 2C9 (Homo sapiens, UniProt P11712); test: Inhibition of CYP2C9 in human liver microsomes using diclofenac as substrate incubated for 10 mins in presence of NADPH by LC-MS/MS analysis; type: ADME, Microsome
Cytochrome P450 2C9, sequence (P11712 whole entry): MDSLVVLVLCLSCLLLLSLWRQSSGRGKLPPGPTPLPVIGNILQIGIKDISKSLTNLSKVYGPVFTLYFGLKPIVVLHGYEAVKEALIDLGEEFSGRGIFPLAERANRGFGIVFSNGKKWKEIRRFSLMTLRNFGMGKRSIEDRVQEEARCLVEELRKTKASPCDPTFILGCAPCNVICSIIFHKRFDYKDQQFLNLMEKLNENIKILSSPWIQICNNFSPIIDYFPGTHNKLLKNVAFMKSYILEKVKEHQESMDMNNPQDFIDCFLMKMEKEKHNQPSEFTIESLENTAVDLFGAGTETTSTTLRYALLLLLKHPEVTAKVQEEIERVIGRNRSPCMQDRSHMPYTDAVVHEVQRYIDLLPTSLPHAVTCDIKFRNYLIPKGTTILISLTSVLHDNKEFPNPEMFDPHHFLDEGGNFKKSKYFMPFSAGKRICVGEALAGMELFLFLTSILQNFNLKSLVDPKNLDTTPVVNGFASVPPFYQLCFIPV

[34] = Plasma clearance in dog; type: ADME, cell-free, Canis lupus familiaris
[35] = Ratio of drug level in mouse blood to plasma; type: ADME, cell-free
[36] = Plasma clearance in human assessed as hepatic extraction; type: ADME, cell-free
[37] = Intrinsic clearance in human hepatocytes measured per 10^6 cells; type: ADME, cell-based, Hepatocyte; settings: read-out: CLH
[38] = Antitumor activity against human Karpas-422 cells xenografted Athymic BALB/c nude mouse assessed as minimum effective dose administered twice a day for 30 days; type: functional; settings: KARPAS-422, 720 h, time 30 day, read-out: MED
[39] = Volume of distribution at steady state in wild type Beagle dog at 2 mg/kg, po or 1 mg/kg, iv after 1 week by LC-MS/MS analysis; type: ADME, organism-based, Canis lupus familiaris; settings: in vivo, 168 h, time 1 weeks
[40] = High throughput solubility of the compound in FeSSIF after 16 to 24 hrs by MS/MS analysis; type: physicochemical; settings: time 16-24 hrs

Drug metabolism [1]: Metabolite_Detected
fraction unbound at 6 h, 1 µM [2]: 0.08
hepatocyte CLint [5]: 3.9 µL/min/1e6 cells
IC50 [6]: 3 µM
Drug metabolism [7]: Metabolite_Notdetected
hepatic extraction ratio [8]: 0.35
blood plasma ratio [9]: 0.78
IC50 [10]: 1.8 µM
solubility [11]: 19 µM (≈ 7.15 µg/mL)
fraction unbound at 6 h, 1 µM [13]: 0.13
solubility [14]: 266 µM (≈ 100 µg/mL)
permeability [17]: 2.8 10^-6 cm/s
microsomal CLint [18]: 22 µL/min/mg
fraction unbound at 6 h, 1 µM [20]: 0.09
Cmax/dose [22]: 427 nM
IC50 [23]: > 18 µM
hepatic extraction ratio [24]: 0.18
IC50 [25]: > 20 µM
IC50 [26]: > 18 µM
microsomal CLint [27]: 91 µL/min/mg
hepatocyte CLint [29]: 12 µL/min/1e6 cells
clearance [30]: 38 mL/min/kg
IC50 [32]: 8.9 µM
IC50 [33]: > 20 µM
clearance [34]: 13 mL/min/kg
blood plasma ratio [35]: 1.03
CLH [36]: 1.6 mL/min/kg
hepatocyte CLint [37]: 4.4 µL/min/1e6 cells
Vdss [39]: 1 L/kg
solubility [40]: 57 µM (≈ 21.5 µg/mL)
Compound: Cc1ncccc1-c1cnc(NCc2c(F)ccc3c2CCO3)n2cnnc12
Activity [3]: Toxic
Activity [4]: 100%
Activity [12]: Non-Toxic
Activity [15]: Non-Toxic
Activity [16]: 100%
Activity [19]: Non-Toxic
Activity [21]: 100%
Activity [28]: 100%
IC50 [31]: > 30 µM
minimal effective dose [38]: 3 mg/kg
